Reference: patent US20240124424A1, “SOLID FORMS OF (5S)-CYCLOPROPYL-5-[3-[(3S)-4-(3,5-DIFLUOROPHENYL)-3-METHYL-PIPERAZIN-1-YL]-3-OXO-PROPYL]IMIDAZOLIDINE-2,4-DIONE” (Galapagos NV, priority 2020, published 2024)
Values joined by “and” are separate entries in the source; they are usually repeats but may differ in a detail not shown here. Identical values can stand only once.

Tests used:
[1] = PK study in human, tablets of Form I and Form II; format: in vivo; conditions: fasted, 300 mg oral
Method: Following a single 300 mg oral administration of Cpd 1 under fasted and/or fed conditions to healthy male subjects (18 subjects per group) as 30% or 50% drug load tablets of crystalline form I and crystalline form II, concentrations of Cpd 1 human plasma concentrations were determined using protein precipitation extraction with liquid chromatography with tandem mass spectrometry (LC-MS/MS) detection.
The lower limit of quantification was 1 ng/mL. In each analytical run, duplicate QC samples were analyzed along with the study samples.
Blood samples (2 mL) for determination of Cpd 1 in plasma were collected at various time points into tubes containing lithium heparin and were immediately chilled (ice bath). Within 30 min after blood collection, the plasma was separated in a refrigerated centrifuge at 4° C. for 10 min at circa 1,500 g.
Predose PK samples were collected within 15 min predose then at the following time points: 0.5 h, 1 h, 1.5 h, 2 h, 2.5 h, 3 h, 4 h, 5 h, 6 h, 8 h, 12 h, 16 h, 24 h, 48 h, 72 h. For all PK samples between 0.5 and 16 h, a window of ±5 min was allowed; for 24- to 72-h samples, a window of ±30 min was allowed.
All statistical analyses were performed using SAS® version 9.4 (or higher) (SAS Institute, Cary, NC, USA) and/or Phoenix WinNonLin (version 8 or higher) software.
All relevant data were documented using summary tables, figures, and subject data listings. […]

[2] = Stability study of the solid forms; format: physicochemical; conditions: for Stability of solid forms under different conditions: result in words
mdx mice = test: Duchenne muscular dystrophy mdx model; format: in vivo; parameters: Average force output (grip strength) / Tissue volume / Bone volume: unit not given here; conditions: mean, Cpd 1 120 mg/kg p.o. b.i.d., prednisolone 5 mg/kg p.o. qd; for Av. g/g BW (average force output/g of body weight) / Average force output (grip strength): n = 15
Source text: The male mdx mice is the most used animal model for pre-clinical Duchenne muscular dystrophy (DMD) research.
Five-week-old mdx mice (Animal Resource Centre; Perth, WA, Australia) were allowed to acclimatise for 1 week to their surroundings, before being randomly allocated to one of four treatment groups or an untreated control group (15 animals per group) as described in the table below. At the start of the study, these groups were matched for mouse body weight.
The untreated control mdx mice were restrained throughout the study. Following 1-week acclimatisation, this group of mice also have baseline measurements of grip strength and body composition taken, which were repeated at ˜10 weeks and ˜15 weeks of age. Furthermore, these mice were weighed on a regular basis and their urine was collected at ˜6, ˜10 and ˜15 weeks of age. […]
Bone structure was evaluated via μCT analysis of cortical and trabecular bone on the femur.

Balb/c mice = test: Protein overload nephrectomy model; format: in vivo; conditions: day 14, individual mice, Cpd 1 240 mg/kg/day b.i.d. or lisinopril 10 mg/kg/day, oral gavage; for proteinuria / urine creatinine: 24 h urine; for Protein/creatinine: urine ratio
Method: This animal model allows to assess the efficacy of the compound of the invention in renal disease, including renal fibrosis.
This study was undertaken in Balb/c mice (Charles River).
Mice underwent a left unilateral nephrectomy via a short flank incision under anaesthesia.
Sham control mice received an incision only . The mice were allowed to recover from surgery for 7 days.
Drug treatment commenced one day prior to initiation of protein overload.
Each mouse received either Cpd 1 240 mg/kg/day b.i.d. (dosed daily at 8h00 and 15h30), or 10 mg/kg/day Lisinopril (one dose Lisinopril plus one dose of vehicle), or vehicle alone (0.5% methyl cellulose containing 2% Tween 80—two doses) by oral gavage.
Sham mice received vehicle alone. Protein overload was initiated by daily intraperitoneal injections of sterile filtered 450 mg/ml BSA solution in saline (Sigma cat A4919: low endotoxin) starting from 2 mg/g body weight on day one and increasing to 15 mg/g on day 7 until day 14 according to schedule below:
Sham mice received equivalent volumes of saline. After the last injection, mice were housed in metabolic cages for 24 h urine collection.
The mice were then anaesthetized before sacrifice. Blood sample was collected. The remaining right kidneys were perfused with PBS (Sigma 806552)+10 mM EDTA (Invitrogen 15575-02—stock 0.5M) after which they were excised and transverse dissected.
All data were expressed as means±SEM. Results were analysed using GraphPad Prism 8. D'Agostino-Pearson omnibus normality tests were performed to assess normality for data sets >8, while a Shapiro-Wilk test was applied to data sets <8. For multiple comparisons, a one-way ANOVA with Tukey's post hoc correction (parametric) or a Kruskal-Wallis test with Dunn's post hoc test (non-parametric data) were used. ELISA standard curves were plotted using a Sigmoidal4PL fit where x was the log of the standard concentration. Relative mRNA expression levels were calculated according to the Livak equation as 2-ΔCt. A confidence interval of 0.95, p≤0.05, was applied for all statistical tests.
The following endpoints were measured: • Urine Protein concentration mg/mL, • Urine protein/mg creatinine (mg/mg) • serum protein concentration (mg/mL), • urine creatinine concentration (mg/dL)(mg/mL) • Serum creatinine concentration (mg/dL) • Serum urea concentration (mg/dL) • Versikine, NITEGE, ARGS dot blots • Immunohistochemistry: ADAMTS5, Collagen I, Collagen IV, fibronectin, CD45, complement C3, F4/80

BALB/c (H2^d) mice = test: Graft versus host (cGvHD) lung model; format: in vivo; conditions: 120 mg/kg p.o. b.i.d., statistically significant
Source text: In this cGvHD model, fibrosis was induced in BALB/c (H2^d) mice by allogeneic transplantation of bone marrow cells and splenocytes from B10.D2 (H2^d) donor mice (minor HLA mismatch). The recipient mice develop inflammation-driven dermal and pulmonary fibrosis resembling patients with rapidly progressive diffuse cutaneous systemic sclerosis (Zen et al., 2012).
The treatment was provided only after the onset of first clinical symptoms of sclerodermatous cGvHD.
The following groups with each eight mice were used in this study • Syngeneically transplanted, placebo-treated control group: Syngeneic bone marrow and splenocyte transplantation (BALB/c (H2^d)→BALB/c (H2^d)). Application of methyl cellulose 0.5% from day 21 to day 56 post transplantation. • Vehicle-treated fibrosis group: Allogeneic bone marrow and splenocyte transplantation (B10.D2 (H2^d)→BALB/c (H2^d)). Application of methyl cellulose 0.5% from day 21 to day 56 post transplantation • Control group to assess pretreatment levels of fibrosis induced by allogeneic transplantation: Allogeneic bone marrow and splenocyte transplantation (B10.D2 (H2^d)→BALB/c (H2^d)). Sacrifice at day 21, before treatment was initiated in the other groups. • Treatment group: Allogeneic bone marrow and splenocyte transplantation (B10.D2 (H2^d)→BALB/c (H2^d)). Application of a test compound of the invention from day 21 to day 56 post transplantation. • Positive control group: Allogeneic bone marrow and splenocyte transplantation (B10.D2 (H2^d)→BALB/c (H2^d)). Application of 50 mg/kg qd nintedanib from day 21 to day 56 post transplantation.
Animals were sacrificed 2 h post last dose, and samples of skin (3 mm punch biopsies), lung, spleen and blood were collected for histology and gene expression analysis.
The anti-fibrotic effects on skin were analysed by determination of dermal thickness, quantification of lesional collagen and staining for myofibroblasts.
In case of positive effects on skin fibrosis, effects on pulmonary fibrosis were analysed by Ashcroft scoring, hydroxyproline content, and quantification of the collagen covered area using Sirius red staining
Based on individual animal raw data, the means for each group were determined and percent change from disease controls was calculated. Treatment groups were compared to disease controls using a one-way analysis of variance (1-way ANOVA) with a Dunnett's post-hoc analysis for measured (parametric) data or a Kruskal-Wallis test with a Dunn's post-hoc analysis for scored (non-parametric) data.

[3] = storage 25° C./60% RH - 12 months
[4] = storage 40° C./75% RH - 6 months

SMILES	Stability of solid forms under different conditions [2]	Stability [2, 3]	Stability [2, 4]	BV/TV (bone volume fraction) (mdx mice; after treatment)	Bone volume (mdx mice; after treatment)	Av. g/g BW (average force output/g of body weight) (mdx mice; mid treatment (4 weeks))	Average force output (grip strength) (mdx mice; mid treatment (4 weeks))	Av. g/g BW (average force output/g of body weight) (mdx mice; post treatment (9 weeks))	Average force output (grip strength) (mdx mice; post treatment (9 weeks))	Av. g/g BW (average force output/g of body weight) (mdx mice; pre-treatment)	Average force output (grip strength) (mdx mice; pre-treatment)	proteinuria (Balb/c mice)	urine creatinine (Balb/c mice)	serum creatinine (Balb/c mice)	Protein/creatinine (Balb/c mice)	other results
C[C@H]1CN(C(=O)CC[C@@]2(C3CC3)NC(=O)NC2=O)CCN1c1cc(F)cc(F)c1 [Form II, (5S)-cyclopropyl-5-[3-[(3S)-4-(3,5-difluorophenyl)-3-methyl-piperazin-1-yl]-3-oxo-propyl]imidazolidine-2,4-dione]	stable	99.3%	98.7%	–	–	–	–	–	–	–	–	–	–	–	–	increase in plasma peak exposure (Cmax) compared to polymorphic form I ([1]; 30% load tablet): 34%; increase in plasma peak exposure (Cmax) compared to polymorphic form I ([1]; 50% load tablet): 40%
C[C@]12C=CC(=O)C=C1CC[C@@H]1[C@@H]2[C@@H](O)C[C@@]2(C)[C@H]1CC[C@]2(O)C(=O)CO [prednisolone, reference compound]	–	–	–	29.84%	0.70	3.44 g/g	84.86	2.93 g/g	78.84	2.83 g/g	60.55	–	–	–	–	–
C[C@H]1CN(C(=O)CC[C@@]2(C3CC3)NC(=O)NC2=O)CCN1c1cc(F)cc(F)c1 [Amorphous, (5S)-cyclopropyl-5-[3-[(3S)-4-(3,5-difluorophenyl)-3-methyl-piperazin-1-yl]-3-oxo-propyl]imidazolidine-2,4-dione]	stable	100%	99.3%	–	–	–	–	–	–	–	–	–	–	–	–	–
NCCCC[C@H](N[C@@H](CCc1ccccc1)C(=O)O)C(=O)N1CCC[C@H]1C(=O)O [lisinopril, reference compound]	–	–	–	–	–	–	–	–	–	–	–	59.1 mg/mL and 128.8 mg/mL and 55.8 mg/mL and 197.6 mg/mL and 71.7 mg/mL and 264.6 mg/mL and 284 mg/mL and 82.1 mg/mL and 80 mg/mL and 79 mg/mL	0.467 mg/mL and 0.378 mg/mL and 0.32 mg/mL and 0.36 mg/mL and 0.3 mg/mL and 0.34 mg/mL and 0.41 mg/mL and 0.38 mg/mL and 0.22 mg/mL and 0.42 mg/mL	0.39 mg/dL and 0.41 mg/dL and 0.34 mg/dL and 0.35 mg/dL and 0.25 mg/dL and 0.57 mg/dL (2×) and 0.46 mg/dL and 0.55 mg/dL and 0.54 mg/dL	127 and 341 and 174 and 552 and 238 and 774 and 700 and 216 and 364 and 188	–
C[C@H]1CN(C(=O)CC[C@@]2(C3CC3)NC(=O)NC2=O)CCN1c1cc(F)cc(F)c1 [Form I, (5S)-cyclopropyl-5-[3-[(3S)-4-(3,5-difluorophenyl)-3-methyl-piperazin-1-yl]-3-oxo-propyl]imidazolidine-2,4-dione]	stable	100%	100%	–	–	–	–	–	–	–	–	–	–	–	–	–
C[C@H]1CN(C(=O)CC[C@@]2(C3CC3)NC(=O)NC2=O)CCN1c1cc(F)cc(F)c1 [Cpd 1, (5S)-cyclopropyl-5-[3-[(3S)-4-(3,5-difluorophenyl)-3-methyl-piperazin-1-yl]-3-oxo-propyl]imidazolidine-2,4-dione]	–	–	–	36.09%	0.80	3.72 g/g	91.88	3.86 g/g	88.24	2.86 g/g	61.13	75.2 mg/mL and 54.7 mg/mL and 187 mg/mL and 79.4 mg/mL and 145 mg/mL and 72.4 mg/mL and 143.5 mg/mL and 229.6 mg/mL and 163 mg/mL and 44.4 mg/mL	0.33 mg/mL and 0.34 mg/mL and 0.38 mg/mL and 0.25 mg/mL (2×) and 0.29 mg/mL and 0.26 mg/mL and 0.297 mg/mL and 0.384 mg/mL and 0.28 mg/mL	0.43 mg/dL and 0.4 mg/dL and 0.47 mg/dL and 0.44 mg/dL and 0.41 mg/dL and 0.46 mg/dL and 0.39 mg/dL and 0.38 mg/dL and 0.3 mg/dL and 0.37 mg/dL	229 and 160 and 497 and 321 and 581 and 250 and 550 and 774 and 425 and 159	Tissue volume (mdx mice; after treatment): 2.21; reduction of Hydroxyproline content in skin (BALB/c (H2^d) mice): −8.3%; decrease of Ashcroft score compared to the vehicle group (BALB/c (H2^d) mice; lung): −1,3 fold; decrease of collagen-covered lung area compared to the vehicle group (BALB/c (H2^d) mice; lung): −1,2 fold; reduction of myofibroblast count (BALB/c (H2^d) mice; skin): −35%
